Assay results reported in US12492194B2, “HPK1 inhibitors” (Janssen Pharmaceutica NV, priority 2019, dated 2025).

How the values were obtained:
full-length human Hpk1 = molecular target: T1, full-length human Hpk1 (Homo sapiens, UniProt Q92918); experiment: HPK1 kinase assay (ADP Glo Kinase Assay); format: biochemical; details: full-length human GST-Hpk1, ADP Glo, 75 μM ATP; read-out: Hpk1 biochemical (pIC50) (converted)
T1 construct: A recombinant fusion protein consisting of full-length human Hpk1; GST (N)
Procedure: Pharmacological Part HPK1 Kinase Assay
A recombinant fusion protein consisting of full-length human Hpk1 with an N-terminal Glutatione S-transferase (GST) tag was produced in a baculovirus/insect cell expression system. GST-Hpk1 protein was purified from cell lysates by glutathione sepharose affinity chromatography. Kinase inhibition was determined using the ADP Glo™ Kinase Assay kit (Promega, V9101). Test compounds were prepared by serial dilution in dimethyl sulfoxide (DMSO) and 0.1 μl of each dilution was spotted onto a 384-well white Proxiplate (Perkin Elmer, 6008289). 8 μl of kinase assay buffer (40 mM Tris pH 7.5, 2 mM dithiothreitol (DTT), 0.05% Bovine Serum Albumin, 5 mM MgCl2) containing Hpk1 protein was transferred to each well and incubated for 30-45 minutes at room temperature. The enzymatic reaction was started by adding 2 μl of kinase assay buffer containing 75 μM ATP. After 120 minutes, the reaction was stopped by adding 3 μl of ADP Glo™ reagent (Promega, V9101) and incubating 45 minutes at room temperature.

Hpk1 = Hpk1 (Homo sapiens, UniProt Q92918); experiment: SLP76 phosphorylation assay (SLP76 pS376 in lysates of HEK293 cells engineered to express Hpk1 and SLP76); format: cell-based; details: HEK293 cells expressing Hpk1 and SLP76, 4 hours incubation; read-out: pSLP76 (HEK293) (pIC50) (converted)
Procedure: SLP76 Phosphorylation Assay
Hpk1 inhibition in cells was determined by detection of SLP76 phosphorylation at S376 in lysates from HEK293 cells engineered to express Hpk1 and SLP76. Serial dilutions of test compounds were prepared in cell culture medium and 20 μl was transferred into each well of a 96-well plate containing HEK293 cells in 180 μl of culture medium. After incubation for 4 hours at 37° C./5% CO2, the culture medium was removed, plates were put on ice and cells washed with cold Minimal Essential Medium before lysing in 90 μl of cold Mammalian Protein Extraction Reagent (Thermo Scientific, 78501) for 30 minutes on ice. The cell lysates were transferred to another 96-well plate, centrifuged 10 minutes at 3000 rcf (4° C.) and 30 μl transferred to a 96-well High-bind plate (MSD, L15XB-3). After coating overnight at 4° C., the cell lysate was removed, wells were washed with base buffer (TBS, 0.2% Tween-20), and blocking solution (base buffer containing 3% MSD blocker A) was added to each well for 1 hour at room temperature. The blocking solution was removed, the wells were washed with base buffer, and detection antibody (SLP76 pS376) was added in 25 μl base buffer containing 1% MSD blocker A to each well. After a 2 h incubation at room temperature, the detection antibody was removed, wells were washed four times with base buffer, 25 μl SULFO-TAG labeled goat anti-rabbit secondary antibody (MSD, R32AB-1) in base buffer containing 1% MSD blocker A was added to each well and left for 1 hour at room temperature. Wells were washed 4 times with base buffer, 150 μl Read Buffer T was added to each well, and the plates were read in a Mesoscale plate reader (MSD). IC50 values were determined by curve-fitting the electrochemiluminescent signals obtained from the lysates of HEK293 cells expressing Hpk1 and SLP76 treated with test compounds at various concentrations minus the signal obtained from HEK293 cells expressing SLP76 only.

Chain of Hpk1 (Q92918 whole entry): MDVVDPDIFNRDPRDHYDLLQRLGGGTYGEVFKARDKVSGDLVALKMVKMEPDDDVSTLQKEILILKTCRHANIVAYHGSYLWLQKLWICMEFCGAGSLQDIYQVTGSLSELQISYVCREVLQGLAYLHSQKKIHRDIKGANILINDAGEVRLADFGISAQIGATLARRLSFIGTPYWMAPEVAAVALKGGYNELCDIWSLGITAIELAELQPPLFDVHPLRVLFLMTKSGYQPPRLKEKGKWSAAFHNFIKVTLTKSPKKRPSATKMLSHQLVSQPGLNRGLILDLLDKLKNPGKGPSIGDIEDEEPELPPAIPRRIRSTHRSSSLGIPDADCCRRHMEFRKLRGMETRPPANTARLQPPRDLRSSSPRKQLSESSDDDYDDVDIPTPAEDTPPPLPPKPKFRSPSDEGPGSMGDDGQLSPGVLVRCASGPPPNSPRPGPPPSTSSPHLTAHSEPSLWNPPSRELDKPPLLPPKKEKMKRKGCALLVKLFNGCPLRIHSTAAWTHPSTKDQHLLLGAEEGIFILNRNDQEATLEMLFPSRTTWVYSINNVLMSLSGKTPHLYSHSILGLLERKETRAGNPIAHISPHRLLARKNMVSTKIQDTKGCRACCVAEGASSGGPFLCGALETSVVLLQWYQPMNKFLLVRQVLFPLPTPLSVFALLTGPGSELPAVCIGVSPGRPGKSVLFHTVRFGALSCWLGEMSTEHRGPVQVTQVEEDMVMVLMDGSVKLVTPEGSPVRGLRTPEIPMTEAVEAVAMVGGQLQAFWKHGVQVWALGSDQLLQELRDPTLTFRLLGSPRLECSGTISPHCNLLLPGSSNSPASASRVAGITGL
T1 sequence (Q92918 whole entry, the tested form may be a part): as the sequence (Q92918 whole entry) above

| Structure (SMILES) | IC50 (full-length human Hpk1) [nM] | IC50 (Hpk1) [nM] |
| --- | --- | --- |
| CN(C)Cc1cc(-c2cnc(N)c(-c3ccncn3)c2)ccc1C1CCOCC1 [Co. 77] | 14.1 | 2570 |
| Nc1ncc(-c2ccc(C3=CCSCC3)c([C@@H]3CCCN3)c2)cc1-c1ccnc(F)c1 [Co. 48] | 25.1 | 1320 |
| Nc1ncc(-c2ccc(C3CCOCC3)c([C@H]3CC4(CC4)CN3)c2)cc1-c1ccncc1 (single isomer, unassigned) [Co. 8b] | 135 | 6920 |
| CC(CO)CNC(=O)c1cc(-c2ccc(C3CCOCC3)c(CN(C)C)c2)cnc1N (stereo not drawn) [Co. 111] | 110 | 5890 |
| Nc1ncc(-c2ccc(C3CCOCC3)c([C@@H]3C[S@@+]([O-])CCN3)c2)cc1-c1ccnc(F)c1 (single isomer, unassigned) [Co. 15c] | 631 | > 10000 |
| CO[C@H]1CC[C@@H](c2ccc(-c3cnc(N)c(-c4ccnc(F)c4)c3)cc2[C@@H]2CCCN2)CC1 [Co. 51] | 18.2 | 550 |
| N#Cc1ccc(-c2cnc(N)c(-c3ccnc(F)c3)c2)cc1[C@@H]1CCCN1 [Co. 60] | 251 | > 10000 |
| Nc1ncc(-c2ccc(C3CC4(COC4)C3)c([C@@H]3CCCN3)c2)cc1-c1ccnc(F)c1 [Co. 52] | 38.9 | 851 |
| Nc1ncc(-c2ccc(C3CCOCC3)c([C@@H]3CCCN3)c2)cc1-c1ccnc(C(F)(F)F)c1 [Co. 63] | 58.9 | 5370 |
| CN(C)Cc1cc(-c2cnc(N)c(-c3ccncc3)c2)ccc1C1CCOCC1 [Co. 73] | 42.7 | 1550 |
| Nc1ncc(-c2cnc(N3CCOCC3)c(C3CCCN3)c2)cc1-c1ccncc1 (stereo not drawn) [Co. 12] | 112 | 7410 |
| Nc1ncc(-c2ccc(C3CCOCC3)c([C@@H]3CN4CCCC[C@H]4CN3)c2)cc1Br [Co. 104] | 58.9 | 7940 |
| COc1cc(-c2cc(-c3ccc(C4CCOCC4)c(CN(C)C)c3)cnc2N)ccn1 [Co. 71] | 41.7 | 2040 |
| Nc1ncc(-c2ccc(C3CCOCC3)c([C@H]3CC(F)(F)CN3)c2)cc1-c1ccnc(F)c1 (single isomer, unassigned) [Co. 58] | 8710 | > 10000 |
| Nc1ncc(-c2ccc(N3CCOCC3)c(-c3nnc[nH]3)c2)cc1-c1ccncc1 [Co. 14] | 832 | > 10000 |
| Nc1ncc(-c2ccc(C3CCOCC3)c([C@@H]3CCCN3)c2)nc1-c1ccnc(F)c1 [Co. 43] | 21.4 | > 10000 |
| Nc1ncc(-c2ccc(C3=CCOC3)c([C@@H]3CCCN3)c2)cc1-c1ccnc(F)c1 [Co. 45] | 41.7 | 1120 |
| Nc1ncc(-c2ccc(C3CCOCC3)c([C@H]3C[S@+]([O-])CCN3)c2)cc1-c1ccnc(F)c1 (single isomer, unassigned) [Co. 15d] | 6920 | > 10000 |
| Nc1ncc(-c2ccc(C3CCOCC3)c(-c3cnn[nH]3)c2)cc1-c1ccncc1 [Co. 15] | 575 | > 10000 |
| CC(C)(C#N)c1cc(-c2cc(-c3ccc(C4CCOCC4)c([C@@H]4CCCN4)c3)cnc2N)ccn1 [Co. 29] | 38 | 6030 |
| CN(C)Cc1cc(-c2cnc(N)c(-c3ccncc3F)c2)ccc1C1CCOCC1 [Co. 72] | 40.7 | 2290 |

Next, values leading:

| IC50 (full-length human Hpk1) [nM] | IC50 (Hpk1) [nM] | Structure (SMILES) |
| --- | --- | --- |
| 1.02 | 302 | Nc1ncc(-c2ccc(C3CCOCC3)c([C@@H]3CCCN3)c2)cc1-c1cn[nH]c1 [Co. 23] |
| 42.7 | 3720 | Nc1ncc(-c2ccc(C3CCOCC3)c([C@@H]3CCCN3)c2)cc1-c1cccnc1 [Co. 4] |
| 1950 | > 10000 | C[C@@H]1CN[C@@H](c2cc(-c3cnc(N)c(-c4ccnc(F)c4)c3)ccc2C2CCOCC2)CO1 [Co. 92] |
| 120 | 3980 | Cc1cc(-c2ccc(C3CCOCC3)c([C@@H]3COCCN3)c2)cnc1N [Co. 86] |
| 955 | > 10000 | Nc1ncc(-c2ccc(C3CCOCC3)c([C@H]3CCCN3)c2)cc1-c1ccncc1 [Co. 25b] |
| 25.7 | 794 | C[C@H]1CN[C@H](c2cc(-c3cnc(N)c(Br)c3)ccc2C2CCOCC2)CO1 [Co. 79] |
| 18.6 | 6920 | Nc1ncc(-c2ccc(C3CCOCC3)c([C@@H]3CCCN3)c2)cc1-c1cnn(CCO)c1 [Co. 21] |
| 17 | 380 | [2H]c1cc(-c2cc(-c3ccc(C4CCOCC4)c([C@@H]4CCCN4)c3)cnc2N)ccn1 [Co. 64] |
| 26.9 | 1200 | [2H]c1cc(-c2cc(-c3ccc(C4CCOCC4)c([C@@H]4CCCN4)c3)cnc2N)cc([2H])n1 [Co. 65] |
| 21.4 | 851 | N#Cc1cc(-c2ccc(C3CCOCC3)c([C@@H]3COCCN3)c2)cnc1N [Co. 89] |
| 85.1 | > 10000 | Nc1ncc(-c2ccc(C3CCOCC3)c(C3CCCN3)c2)cc1-c1cc[n+]([O-])cc1 (stereo not drawn) [Co. 66] |
| 7.94 | 692 | N#Cc1ccc(-c2cc(-c3ccc(C4CCOCC4)c([C@@H]4CCCN4)c3)cnc2N)cc1 [Co. 36] |
| 9.77 | 427 | Nc1ncc(-c2ccc(C3CCOCC3)c([C@@H]3CCCN3)c2)cc1-c1ccncc1 [Co. 25] |
| 3720 | > 10000 | Nc1ncc(-c2ccc(C3CCOCC3)c([C@H]3COCCN3)c2)cc1-c1ccncc1 [Co. 80b] |
| 12.9 | 575 | C[C@H]1CN[C@H](c2cc(-c3cnc(N)c(-c4ccnc(F)c4)c3)ccc2C2CCOCC2)CO1 [Co. 94] |
| 25.1 | 479 | Cn1cc(-c2nc(-c3ccc(C4CCOCC4)c([C@@H]4COCCN4)c3)cnc2N)cn1 [Co. 84] |
| 2.04 | 245 | Nc1ncc(-c2ccc(C3CCOCC3)c([C@@H]3CCCN3)c2)cc1-c1ccncn1 [Co. 26] |
| 14.5 | 2290 | Nc1ncc(-c2ccc(C3CCOCC3)c([C@@H]3CCCN3)c2)cc1-c1ccnnc1 [Co. 33] |
